What all share (assay): Mitomycin C growth arrest of fibroblasts (weekly cell counting, colony inspection)
Assay [1] relates to rat fibroblast cell line (CRL 1213). Format: cell-based. To be noted: MMC treatment for 5 h.
The test system of assay [2] is FGF1-transfected rat fibroblast cell line (1175/CRL 1213). Format: cell-based.
The test system of assay [3] is primary human fibroblasts (EDX1). To be noted: MMC treatment for 5 h.
The subject of assay [4] is human telomerase immortalized fibroblast line (MDX12). To be noted: MMC treatment for 5 h.

Turning to `CO[C@@]12[C@H](COC(N)=O)C3=C(C(=O)C(C)=C(N)C3=O)N1C[C@@H]1N[C@@H]12` [mitomycin C], the “concentration optimal to growth arrest” value in assay [1] was 2 µg/mL. The “efficacy of concentrations below 1 μg/ml” value in assay [2] is “not efficacious”. Besides, in assay [2] (MMC treatment for 5 h), the “concentration at which cells were growth arrested” value turned out to be 1 µg/mL. Further, the “concentration sufficient to growth arrest” value in assay [3] and in assay [4] was 8 µg/mL in each case.

Source of the values: patent US9173906B2, “Methods and compositions for tissue regeneration” (SMITH & NEPHEW, INC., priority 2002, dated 2015).
